Test results reported in ChEMBL document CHEMBL1123132, “1-Benzylcyclopropylamine and 1-(phenylcyclopropyl)methylamine: an inactivator and a substrate of monoamine oxidase” (J Med Chem, 1985).

Legend:
Assay type in all cases: protein assay
Monoamine oxidase [1] = biological target: T1, Monoamine oxidase (Homo sapiens, UniProt P21397+P27338); test: Evaluated for (Ki value) inactivation of Monoamine oxidase at saturation.
T1 sequence (P21397 whole entry): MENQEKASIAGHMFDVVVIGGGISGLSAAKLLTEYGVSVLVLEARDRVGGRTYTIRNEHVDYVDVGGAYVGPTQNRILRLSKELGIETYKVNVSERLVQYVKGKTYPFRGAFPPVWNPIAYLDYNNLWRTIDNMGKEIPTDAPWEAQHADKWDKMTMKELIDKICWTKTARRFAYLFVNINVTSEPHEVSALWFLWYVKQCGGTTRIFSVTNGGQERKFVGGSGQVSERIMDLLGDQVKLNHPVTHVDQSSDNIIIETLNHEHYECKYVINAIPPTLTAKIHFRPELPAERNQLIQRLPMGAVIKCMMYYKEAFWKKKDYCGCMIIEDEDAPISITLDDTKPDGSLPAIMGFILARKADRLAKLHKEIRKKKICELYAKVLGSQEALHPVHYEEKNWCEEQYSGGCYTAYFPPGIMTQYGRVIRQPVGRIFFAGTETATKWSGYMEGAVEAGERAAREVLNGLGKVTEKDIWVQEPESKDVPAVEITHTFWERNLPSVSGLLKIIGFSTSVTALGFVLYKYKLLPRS
T1 sequence (P27338 whole entry): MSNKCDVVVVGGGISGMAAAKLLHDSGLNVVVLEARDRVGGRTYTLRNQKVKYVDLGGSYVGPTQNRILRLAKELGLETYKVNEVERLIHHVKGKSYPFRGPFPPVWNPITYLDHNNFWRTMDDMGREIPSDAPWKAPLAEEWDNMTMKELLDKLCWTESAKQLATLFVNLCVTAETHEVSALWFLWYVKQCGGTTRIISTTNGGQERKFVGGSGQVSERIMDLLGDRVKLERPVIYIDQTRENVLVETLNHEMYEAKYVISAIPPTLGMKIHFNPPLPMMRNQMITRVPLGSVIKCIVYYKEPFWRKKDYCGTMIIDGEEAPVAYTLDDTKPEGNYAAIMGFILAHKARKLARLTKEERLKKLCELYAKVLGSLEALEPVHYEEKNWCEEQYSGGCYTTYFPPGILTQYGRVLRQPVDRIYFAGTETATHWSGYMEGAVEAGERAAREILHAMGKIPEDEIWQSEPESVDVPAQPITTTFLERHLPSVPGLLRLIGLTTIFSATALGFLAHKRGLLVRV

Monoamine oxidase [2] = biological target: T1, Monoamine oxidase; test: Evaluated for (Ki value) in competition with oxidation of benzylamine.
Monoamine oxidase [3] = biological target: T1, Monoamine oxidase; test: Kinetic parameter (Km value) was determined
Monoamine oxidase [4] = biological target: T1, Monoamine oxidase; test: Kinetic parameter (Kcat value) was determined

`NC1(Cc2ccccc2)CC1` gave a Ki (Monoamine oxidase [1]) of 480 µM and a Ki (Monoamine oxidase [2]) of 51 µM.
`NCC1(c2ccccc2)CC1` showed a Km (Monoamine oxidase [3]) of 40 µM, a k cat (Monoamine oxidase [4]) of 1.52 s⁻¹ and a Ki (Monoamine oxidase [2]) of 50 µM.
